# Tested on: ripe ‘Red Delicious’ apple fruit
# Assay: Headspace 2-methylbutanoate esters of ripe apple fruit, time course
# Type: in vivo, Malus x domestica Borkh.
# Conditions: within three days of treatment
# Method: ‘Red Delicious’ apple fruit held in refrigerated air for 5 months (see above) plus 1 day at 22° C. and at an advanced ripeness stage (‘ripe’) were treated with rimsulfuron (1 mM) with 0.2% Tween 20 on day 0 of the study and for the next three consecutive days as above described. The fruit were evaluated daily for volatile emissions (see below) for eight days. On days 0, 2, 4, and 7, representative treated and untreated fruit were selected for tissue collection for metabolite analysis (see below). On day 7, samples of fruit peel were fed, as described above, with water or 20 mM isoleucine or α-keto-β-methylvalerate.
# Headspace volatiles from small tissue samples incubated in 22 mL vials were adsorbed for 30 s using a solid-phase micro extraction (SPME) fiber (65 μm PDMS-DVB; Supelco Analytical). The SPME fiber was then directly desorbed for 1 min in the injection port of a gas chromatograph (GC; HP-6890, Hewlett-Packard) coupled to a time-of-flight mass spectrometer (MS; Pegasus II, LECO). […]
# Compounds were identified by comparison of the retention time and mass spectrum against authenticated reference standards and spectra (National Institute of Standards and Technology Mass Spectral Search Program Version 2.0, 2001). Volatiles were quantified by calibration with a standard of 59 authenticated, high-purity compounds (Sigma-Aldrich Co. and Fluka Chemical) including the target compounds. […]
structure (smiles),measurement,value
"CCS(=O)(=O)c1cccnc1S(=O)(=O)NC(=O)Nc1nc(OC)cc(OC)n1 [rimsulfuron, N-((4,6-dimethoxypyrimidin-2-yl)aminocarbonyl)-3-(ethylsulfonyl)-2-pyridinesulfonamide]","headspace content of 2-methylbutanoate esters, of control fruits",15.0%
